≈ marks a conversion by molar mass, not a printed value. Where two headings read alike, the source gives them in different places. Numbered stars: 1 amine (or outer) side, 2 acyl side, 3 side chain; on linkers, the order of the positions; unused ones are H or OH. Bridge positions count the residues as written; N and C are the ends. Side chains are listed from the residue outwards. Peptide text beside a SMILES is read from it. * marks the point of attachment. C20 diacid = O=C(O)CCCCCCCCCCCCCCCCCCC(=O)*; γGlu = O=C(O)[C@H](CCC(=O)[*:2])N[*:1]
Assays:
[1] = biological target: T1, human amylin 3(a) receptor (human calcitonin receptor + RAMP-3) in BHK570 cells (Homo sapiens, UniProt O60896+P30988); assay: ASSAY (II)a functional assay, human amylin receptor (CRE luciferase); assay type: cell-based
T1 construct: expressed in transfected cells
Procedure, shortened: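 Ligand exposure 3 h at 37 °C, 5% CO2 in DMEM with 10% FBS, 10 mM Hepes pH 7.4. cAMP-driven luciferase read by luminescence after 30 min LucLite at room temperature.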

[2] = biological target: T2, rat amylin receptor (rat calcitonin receptor + rat RAMP 3) (Rattus norvegicus, UniProt P32214+Q9JJ73); assay: ASSAY (VI) binding to the rat amylin receptor; details: for IC50: binding to rat amylin receptor, read-out: rAmylin-R bind IC50
T2 construct: expressed in transfected cells; host or cells: BHK tk'ts 13 (transient, FuGENE 6), membranes
T2 sequence (P32214 25-479 isoform P32214-2 limits assumed): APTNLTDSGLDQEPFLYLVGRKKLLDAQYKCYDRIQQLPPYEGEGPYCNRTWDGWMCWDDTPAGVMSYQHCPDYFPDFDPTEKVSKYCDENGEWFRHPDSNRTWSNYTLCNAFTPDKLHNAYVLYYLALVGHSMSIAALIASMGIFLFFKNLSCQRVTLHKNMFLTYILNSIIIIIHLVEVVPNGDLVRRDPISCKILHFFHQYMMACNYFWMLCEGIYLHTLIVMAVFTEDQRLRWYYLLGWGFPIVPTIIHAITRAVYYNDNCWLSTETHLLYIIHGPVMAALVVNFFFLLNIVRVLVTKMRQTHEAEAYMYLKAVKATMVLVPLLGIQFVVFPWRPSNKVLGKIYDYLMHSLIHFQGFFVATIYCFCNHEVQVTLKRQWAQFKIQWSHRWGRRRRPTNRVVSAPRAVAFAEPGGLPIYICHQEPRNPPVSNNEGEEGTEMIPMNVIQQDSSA
T2 sequence (Q9JJ73 23-147 partner): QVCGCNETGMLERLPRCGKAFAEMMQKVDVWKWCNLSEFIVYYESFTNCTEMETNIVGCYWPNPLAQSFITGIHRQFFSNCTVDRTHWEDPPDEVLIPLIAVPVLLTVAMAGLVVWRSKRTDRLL
Procedure, shortened: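 This assay measured binding to the rat amylin receptor. BHK tk′ts 13 cells were transiently transfected with the rat calcitonin receptor using FuGENE® 6 (Roche), following the manufacturer's recommendations. About 48 hours after transfection, the cells were harvested and membranes were prepared from them for the binding determination.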

rat calcitonin receptor = biological target: T3, rat calcitonin receptor (Rattus norvegicus, UniProt P32214); assay: ASSAY (VIII) binding to the rat calcitonin receptor; details: Table 7, read-out: rCTR bind IC50
T3 construct: expressed in transfected cells; host or cells: BHK tk'ts 13 (transient, FuGENE 6), membranes
T3 sequence (P32214 25-479 isoform P32214-2 limits assumed): T2 sequence (P32214 25-479 isoform P32214-2 limits assumed)
Procedure, shortened: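 Rat calcitonin receptor is expressed transiently in BHK tk′ts 13 cells cultured in DMEM with 10% FBS. Roughly two days (approximately 48 hours) post-transfection, cells are harvested for membrane preparation.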

[3] = biological target: T4, human amylin receptor (membranes from Amylin 3(a)/CRE-luc cells) (Homo sapiens, UniProt O60896+P30988); assay: ASSAY (V) binding to the human amylin receptor (SPA, 125I-rat amylin);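 also: competition binding of cell membranes (35 ng/µL) mixed with SPA beads in 384-well plates at 40 µL total volume, read by scintillation counting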
T4 construct: expressed in transfected cells
T4 sequence (P30988 25-474): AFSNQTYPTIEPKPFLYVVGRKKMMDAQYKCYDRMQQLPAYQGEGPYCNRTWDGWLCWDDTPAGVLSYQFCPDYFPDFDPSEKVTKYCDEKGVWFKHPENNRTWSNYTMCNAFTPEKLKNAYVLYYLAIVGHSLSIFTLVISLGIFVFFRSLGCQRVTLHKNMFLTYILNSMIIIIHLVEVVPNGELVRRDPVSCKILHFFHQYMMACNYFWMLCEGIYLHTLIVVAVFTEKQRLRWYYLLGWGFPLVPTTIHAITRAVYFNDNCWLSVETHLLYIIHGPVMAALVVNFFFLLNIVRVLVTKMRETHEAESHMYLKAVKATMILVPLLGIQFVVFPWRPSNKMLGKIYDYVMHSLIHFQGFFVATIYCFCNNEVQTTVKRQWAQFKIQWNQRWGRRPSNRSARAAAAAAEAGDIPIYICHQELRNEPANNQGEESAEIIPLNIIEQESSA
T4 sequence (O60896 24-148 partner): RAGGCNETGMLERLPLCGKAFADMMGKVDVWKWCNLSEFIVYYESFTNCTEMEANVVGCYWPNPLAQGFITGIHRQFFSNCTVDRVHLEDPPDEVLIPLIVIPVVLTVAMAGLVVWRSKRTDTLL

[4] = ASSAY (IV) determination of solubility; assay type: physicochemical
Procedure, shortened: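 Dissolve polypeptide in water ([…] stock); combine 1:1 with each 100 mM buffer (glycylglycine pH 3.0/4.0/5.0; bistrispropane pH 6.0/6.5/7.0/7.5/8.0); hold 18 hours at room temperature; centrifuge; quantify polypeptide by UPLC.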

[5] = hCTR funct. EC50 divided by hAmylin-R funct. EC50
[6] = hCTR funct. EC50 over hAmylin-R funct. EC50
[7] = human functional selectivity: hCTR funct. EC50 / hAmylin-R funct. EC50
[8] = Table 7, rat binding selectivity, rCTR IC50 / rAmylin-R IC50
[9] = Table 7a (preferred compounds), rat binding selectivity, rCTR IC50 / rAmylin-R IC50
[10] = ratio of rCTR bind IC50 to rAmylin-R bind IC50
[11] = Table 5, selectivity, hCTR bind IC50 / hAmylin-R bind IC50
[12] = Table 5a, selectivity, hCTR bind IC50 / hAmylin-R bind IC50
[13] = Table 5b, selectivity, hCTR bind IC50 / hAmylin-R bind IC50
[14] = Table 5c, selectivity, hCTR bind IC50 / hAmylin-R bind IC50
[15] = Table 7, human binding selectivity, included for comparison
[16] = Table 7a (preferred compounds), human binding selectivity, included for comparison
[17] = ratio of human calcitonin receptor binding IC50 to human amylin receptor binding IC50
[18] = bistrispropane buffer, pH 6.5, read-out: Solubility pH 6.5 Concentration
[19] = bistrispropane buffer, pH 7.5, read-out: Solubility pH 7.5 Concentration
[20] = bistrispropane buffer, pH 6.0, read-out: Solubility pH 6.0 Concentration
[21] = bistrispropane buffer, pH 7.0, read-out: Solubility pH 7.0 Concentration
[22] = bistrispropane buffer, pH 8.0, read-out: Solubility pH 8.0 Concentration
[23] = glycylglycine buffer, pH 3.0, read-out: Solubility pH 3.0 Concentration
[24] = glycylglycine buffer, pH 4.0, read-out: Solubility pH 4.0 Concentration
[25] = glycylglycine buffer, pH 5.0, read-out: Solubility pH 5.0 Concentration

Ratio hCT/hAmylin funct. [1, 5] | Ratio hCT/hAmylin funct. [1, 6] | Ratio hCT/hAmylin funct. [1, 7] | IC50 ([2]; Table 7) | Ratio rCT/rAmylin binding [2, 8] | Ratio rCT/rAmylin binding [2, 9] | Ratio rCT/rAmylin binding [2, 10] | IC50 (rat calcitonin receptor) | Ratio hCT/hAmylin binding [3, 11] | Ratio hCT/hAmylin binding [3, 12] | Ratio hCT/hAmylin binding [3, 13] | Ratio hCT/hAmylin binding [3, 14] | Ratio hCT/hAmylin binding [3, 15] | Ratio hCT/hAmylin binding [3, 16] | Ratio hCT/hAmylin binding [3, 17] | solubility at 18 h [4, 18] | solubility at 18 h [4, 19] | solubility at 18 h [4, 20] | solubility at 18 h [4, 21] | solubility at 18 h [4, 22] | SMILES | other results
16.4 | 16.4 | 16.4 | 0.288 nM | 73.0 | 73.0 | 73.0 | 21 nM | 27.3 | 27.3 | 27.3 | 27.3 | 27.3 | 27.3 | 27.3 | ≥ 200 µM | ≥ 200 µM | ≥ 200 µM | ≥ 200 µM | 165 µM (≈ 752 µg/mL) | CC[C@H](C)[C@H](NC(=O)[C@H](C)NC(=O)CNC(=O)[C@H](Cc1ccccc1)NC(=O)[C@H](CC(N)=O)NC(=O)[C@@H]1CCCN1C(=O)[C@H](CO)NC(=O)[C@H](CO)NC(=O)[C@H](Cc1c[nH]cn1)NC(=O)[C@H](CCCNC(=N)N)NC(=O)[C@H](CC(C)C)NC(=O)[C@H](Cc1ccccc1)NC(=O)[C@H](CCC(=O)O)NC(=O)[C@H](C)NC(=O)[C@H](CC(C)C)NC(=O)[C@H](CCCNC(=N)N)NC(=O)[C@H](CCC(N)=O)NC(=O)[C@@H](NC(=O)[C@H](C)NC(=O)[C@@H]1CSSC[C@H](NC(=O)[C@@H](N)CCCCNC(=O)CC[C@H](NC(=O)CC[C@H](NC(=O)CCCCCCCCCCCCCCCCCCC(=O)O)C(=O)O)C(=O)O)C(=O)N[C@@H](CC(N)=O)C(=O)N[C@@H]([C@@H](C)O)C(=O)N[C@@H](C)C(=O)N[C@@H]([C@@H](C)O)C(=O)N1)[C@@H](C)O)C(=O)N1CCC[C@H]1C(=O)N[C@@H](CO)C(=O)N[C@@H](CO)C(=O)N[C@H](C(=O)N[C@@H](CC(N)=O)C(=O)N[C@H](C(=O)NCC(=O)N1CCC[C@H]1C(=O)N[C@@H](Cc1c[nH]cn1)C(=O)N[C@H](C(=O)N[C@@H](Cc1ccc(O)cc1)C(N)=O)[C@@H](C)O)C(C)C)[C@@H](C)O [Example 124] (H-K([γGlu-γGlu-C20 diacid])CNTATCATQRLAEFLRHSSPNFGAIPSSTNVGPHTY-NH2; disulfide 2-7 (inferred)) | solubility at 18 h [4, 23]: ≥ 200 µM; solubility at 18 h [4, 24]: ≥ 200 µM; solubility at 18 h [4, 25]: ≥ 200 µM
12.6 | 12.6 | 12.6 | 3.14 nM | 36.1 | 36.1 | 36.1 | 114 nM | 23.6 | 23.6 | 23.6 | 23.6 | 23.6 | 23.6 | 23.6 | ≥ 200 µM | ≥ 200 µM | ≥ 200 µM | ≥ 200 µM | ≥ 200 µM | CC[C@H](C)[C@H](NC(=O)[C@H](C)NC(=O)CNC(=O)[C@H](Cc1ccccc1)NC(=O)[C@H](CC(N)=O)NC(=O)[C@@H]1CCCN1C(=O)[C@H](CO)NC(=O)[C@H](CO)NC(=O)[C@H](Cc1c[nH]cn1)NC(=O)[C@H](CCCNC(=N)N)NC(=O)[C@H](CC(C)C)NC(=O)[C@H](Cc1ccccc1)NC(=O)[C@H](Cc1c[nH]cn1)NC(=O)[C@H](C)NC(=O)[C@H](CC(C)C)NC(=O)[C@H](CCCNC(=N)N)NC(=O)[C@H](CCC(N)=O)NC(=O)[C@@H](NC(=O)[C@H](C)NC(=O)[C@@H]1CSSC[C@H](NC(=O)[C@H](CCCCN)NC(=O)CC[C@H](NC(=O)CCCCCCCCCCCCCCCCCCC(=O)O)C(=O)O)C(=O)N[C@@H](CC(N)=O)C(=O)N[C@@H]([C@@H](C)O)C(=O)N[C@@H](C)C(=O)N[C@@H]([C@@H](C)O)C(=O)N1)[C@@H](C)O)C(=O)N1CCC[C@H]1C(=O)N[C@@H](CO)C(=O)N[C@@H](CO)C(=O)N[C@H](C(=O)N[C@@H](CC(N)=O)C(=O)N[C@H](C(=O)NCC(=O)N[C@@H](CO)C(=O)N[C@@H](CCC(=O)O)C(=O)N[C@H](C(=O)N[C@@H](Cc1ccc(O)cc1)C(N)=O)[C@@H](C)O)C(C)C)[C@@H](C)O [Example 30] ({C20 diacid-γGlu}-KCNTATCATQRLAHFLRHSSPNFGAIPSSTNVGSETY-NH2; disulfide 2-7) | solubility at 18 h [4, 23]: ≥ 200 µM; solubility at 18 h [4, 24]: ≥ 200 µM; solubility at 18 h [4, 25]: ≥ 200 µM

Reference: patent publication US9023789B2, “Amylin analogs and pharmaceutical compositions thereof” (Novo Nordisk A/S, priority 2012, dated 2015)
